Reference: US20230172936A1, “VCP/p97 INHIBITOR FOR THE TREATMENT OF CANCER” (Cleave Therapeutics, Inc., priority 2020, published 2023)
Where two headings read alike, the source gives them in different places.

How the values were obtained:
OCI-AML-3 = test: Combination Index (Chou-Talalay) of Compound 1 with additional therapeutic agents; assay type: cell-based, human; settings: for Combination Index of Compound 1 + agent: OCI-AML-3, CI scores across all 3 ratios averaged
Experimental: (§1) Each combination was tested in 3 cell lines: MOML-13 (Human Acute Myeloid Leukemia cell line; Addex Bio), MV-4-11 (Human B Myelomoncytic Leukemia cell line; ATCC), and OCI-AML-3 (Human Acute Myeloid Leukemia cell line).
(§2) Within this range, 20 dose levels were tested for each combination, with each response determined in duplicate. […] The actual drug concentrations in the ratios were determined from the IC50 values obtained for each individual drug.
(§3) Raw data was analyzed using Graph Pad Prism, four parameter logistic fits, and Chou-Talalay drug combination analyses. […] For data points with Fe<0, the fractional effect was set to 0.001. Data points with Fe>0.99 or <0.01 were omitted from the Chou-Talalay analysis because the Chou-Talalay analysis fits data to the Log of the fractional effect, with equal weight applied across the range of effect, such that the high and low end of the dose response, very small changes in effect within the range of experimental error erroneously skew the outcome of the model fit.
(§4) A Combination Index (CI) vs Fractional Effect plot showing the actual combination index plotted vs Fractional effect value was plotted for each combination dose. In this analysis, CI=1 represents additive activity, CI>1 represent less than additive activity (often referred to as antagonism) and CI<1=synergistic activity (better than additive).

MOML-13 = test: as above; assay type: cell-based, human; settings: for Combination Index of Compound 1 + agent: MOML-13, CI scores across all 3 ratios averaged; for action of the combination with Compound 1 (synergistic, additive, antagonistic): MOML-13 (FLT3 heterozygous, BRCA2 mutant)
Experimental: as §1, §2, §3, §4

MV-4-11 = test: as above; assay type: cell-based, human; settings: for Combination Index of Compound 1 + agent: MV-4-11, CI scores across all 3 ratios averaged
Experimental: as §1, §2, §3, §4

MV4; 11 cell line = test: Combination treatments, Cell Titer-Glo viability after 72 hours; assay type: cell-based, human
Experimental: (§5) The additional therapeutic agents for this example were azacitidine (Cayman Chemical Cat No. 11164), decitabine (Sigma Cat No. A3656) and venetoclax (InvivoChem Cat. No. V0001).
(§6) Cell Culture: Three human acute myeloid leukemia tumor cell lines were used in this study: HL60, MV4;11 and MOLM-13. HL60 and MV4;11 were grown in IMDM base media with 20% and 10% FBS, respectively. MOLM-13 was grown in RPMI 1640 base media with 20% FBS. All culture media contained 2 mM glutamine, 100 units/mL sodium penicillin G, […] gentamicin, and 100 μg/mL streptomycin sulfate. The tumor cells were cultured in tissue culture flasks in a humidified incubator at 37° C., in an atmosphere of 5% C02 and 95% air. Assay: Tumor cells were seeded in duplicate in a volume of 100 μL/well of media into 96-well micro-culture plates at initial densities low enough to allow for several population doublings (typically three to five) during the indicated incubation period. After a 24 hour incubation, test agents were added to each well. After 72 hours of culture with test articles, cell viability was determined using the Cell Titer-Glo® (Promega G7571) assay. Briefly, Cell Titer-Glo® (Promega G7571) reagents were equilibrated at room temperature for 30 minutes; 100 μL per well was added at endpoint (72 hours). Plates were gently shaken for two minutes and then incubated at room temperature for ten minutes prior to reading luminescence on the BMG Clariostar Plus microplate reader.
(§7) An IC50 ratio for each combination was calculated from the ratio of the combination IC50 as compared to the applicable no fixed agent (vehicle) control.

HL-60 cell line = test: as above; assay type: cell-based, human
Experimental: as §5, §6, §7

MOML-13 cell line = test: as above; assay type: cell-based, human
Experimental: as §5, §6, §7

[1] = system: human A549 lung adenocarcinoma xenograft tumors; test: Tumor growth of A549 xenograft tumors; assay type: in vivo, mice; settings: 55 mg/kg QD4/3 off
Text: (§8) Group 1 received PO 4-days on, 3-days off doses (QD4/3 off) of vehicle.

[2] = Adverse events and visual impairment in Phase I subjects; settings: at equivalent plasma exposure of Compound 1 and CB-5083
[3] = 55 mg/kg QD4/3 off
Text: as §8

[4] = MV4, 11, fixed agent Compound 1 - 185 nM
[5] = HL-60, fixed agent Compound 1 - 210 nM
[6] = MOML-13, fixed agent Compound 1 - 75 nM

Compound	Combination Index of Compound 1 + agent (OCI-AML-3)	Combination Index of Compound 1 + agent (MOML-13)	Combination Index of Compound 1 + agent (MV-4-11)	further results
COCC1(CO)C(=O)C2CCN1CC2 (stereo not shown) [APR-246]	1.279	1.228	1.285	–
C[C@@H]1COCCN1c1cc(C2([S@](C)(=N)=O)CC2)nc(-c2cc[nH]c3nccc2-3)n1 [AZD6738]	1.421	1.338	1.228	–
CN(C)CCCOc1ccc(-c2ccc3ncc4c(c3c2)n(C2CCOCC2)c(=O)n4C)cn1 [AZDO156]	1.159	1.293	1.122	–
Nc1ncn([C@@H]2O[C@H](CO)[C@@H](O)[C@H]2O)c(=O)n1 [Azacitidine, azacitidine, reference compound]	–	–	–	IC50 (MV4; 11 cell line; Homo sapiens, 72 h, MV4, 11, no fixed agent (vehicle), read-out: IC50): 1100 nM; Combination: Monotherapy IC50 Ratio (MV4; 11 cell line; [4]): 0.10; Combination: Monotherapy IC50 Ratio (HL-60 cell line; [5]): 0.82; IC50 (HL-60 cell line; Homo sapiens, 72 h, HL-60, no fixed agent (vehicle), read-out: IC50): 2400 nM; IC50 (MOML-13 cell line; Homo sapiens, 72 h, MOML-13, no fixed agent (vehicle), read-out: IC50): 445 nM; Combination: Monotherapy IC50 Ratio (MOML-13 cell line; [6]): 0.28
Cc1cc2c(C(N)=O)cccc2n1-c1nc2c(c(NCc3ccccc3)n1)COCC2 [CB-5083, 1-[7,8-dihydro-4-[(phenylmethyl)amino]-5H-pyrano[4,3-d]pyrimidin-2-yl]-2-methyl-1H-indole-4-carboxamide, reference compound]	–	–	–	TGI [1]: 33%; symptoms of visual impairment or other visual adverse events [2]: visual adverse events as seen; drug-related deaths [3]: no drug-related deaths
Nc1ncn([C@H]2C[C@H](O)[C@@H](CO)O2)c(=O)n1 [Decitabine, decitabine, reference compound]	–	–	–	IC50 (MV4; 11 cell line; Homo sapiens, MV4-11, 72 h): 390 nM; Combination: Monotherapy IC50 Ratio (MV4; 11 cell line; [4]): 0.02; IC50 (MV4; 11 cell line; [4]): 7.1 nM; Combination: Monotherapy IC50 Ratio (HL-60 cell line; [5]): 0.76; IC50 (HL-60 cell line; [5]): 4030 nM; IC50 (HL-60 cell line; Homo sapiens, HL-60, 72 h): 5290 nM; IC50 (MOML-13 cell line; Homo sapiens, 72 h): 10.8 nM; Combination: Monotherapy IC50 Ratio (MOML-13 cell line; [6]): 0.60; IC50 (MOML-13 cell line; [6]): 6.5 nM
CCc1nc(C(N)=O)c(Nc2ccc(N3CCC(N4CCN(C)CC4)CC3)c(OC)c2)nc1NC1CCOCC1 [Gilteritinib]	1.514	1.266	0.799	–
CC(C)C[C@H](NC(=O)CNC(=O)c1cc(Cl)ccc1Cl)B(O)O [Ixazomib]	1.438	1.413	1.546	action of the combination with Compound 1 (synergistic, additive, antagonistic) (OCI-AML-3; OCI-AML-3 (FLT3 wildtype)): antagonistic; action of the combination with Compound 1 (synergistic, additive, antagonistic) (MOML-13): antagonistic; action of the combination with Compound 1 (synergistic, additive, antagonistic) (MV-4-11; MV-4-11 (FLT3 homozygous mutant)): antagonistic
COc1ccc([C@@H](O)c2cc(-c3ncnc4cc(N5CCOCC5)ccc34)c(F)cc2Cl)nn1 [Nedisertib]	1.170	1.272	0.986	–
NS(=O)(=O)OC[C@@H]1C[C@@H](n2ccc3c(N[C@H]4CCc5ccccc54)ncnc32)C[C@@H]1O [Pevonedistat]	1.186	1.120	1.302	–
Cn1ncnc1[C@H]1c2n[nH]c(=O)c3cc(F)cc(c23)N[C@@H]1c1ccc(F)cc1 [Talazoparib]	0.986	0.529	0.769	action of the combination with Compound 1 (synergistic, additive, antagonistic) (MOML-13): strong synergy
CC1(C)CCC(CN2CCN(c3ccc(C(=O)NS(=O)(=O)c4ccc(NCC5CCOCC5)c([N+](=O)[O-])c4)c(Oc4cnc5[nH]ccc5c4)c3)CC2)=C(c2ccc(Cl)cc2)C1 [Venetoclax]	0.855	0.730	0.819	–
